Laboratory results as given in patent publication US20120213707A1, “Riboflavin Based Aerosol and Use as Placebo in Trials” (MPEX PHARMACEUTICALS, INC., priority 2009, published 2012).
Like-named read-outs stand apart in the source and are kept apart here.

Legend:
[1] = format: in vivo, rat (rattus norvegicus)
Experimental: (§1) The objective of the study was to determine the toxicity and toxicokinetic profile of the test article, riboflavin 5′-phosphate, following inhalation (nose-only) administration to rats for 28 consecutive days.
(§2) Treatment: Daily inhalation by nose-only exposure for 60 minutes. Duration of treatment: 28 Days.
(§3) Assessments of mortality, clinical signs, body weights, food consumption, ophthalmology, functional observation battery and clinical chemistry, hematology, coagulation and urinalysis were performed. Plasma prepared from blood samples were collected from designated animals on the first and last days of the study and analyzed for Riboflavin 5′-phosphate content and toxicokinetic evaluation. All toxicology (main study) animals were euthanized upon completion of the 28-day treatment period and selected tissues were retained, weighed and examined microscopically. Toxicokinetic animals were euthanized following completion of blood sampling and were not subjected to necropsy examination or tissue collection. The following tables summarize tests, methods, and abbreviations used in hematology tests (Table 3), coagulation tests (Table 4), clinical chemistry tests (Table 5), and urinalysis (Table 6).

[2] = Aerosol particle size distribution, rat nose-only exposure system (7-Stage Mercer Cascade Impactor); format: physicochemical
Text: (§4) The aerosol was produced by metering the flow of the test article or vehicle formulations to 3 clinical nebulizers (Sidestream) connected to high velocity airstreams (10 L/min to each nebuliser). The aerosol produced was discharged through a 40 mm diameter tube into a flow-past inhalation exposure system. The airflow rate through the exposure system was monitored and recorded manually during the aerosol generation. Airflow to the exposure system was controlled by the absolute volume of air supplying the aerosol generators using variable area flow meters.
Determinations of aerosol concentration, particle size distribution, oxygen concentration, relative humidity and temperature was performed on test atmosphere samples collected from a representative port of the exposure system, with a collection sample flow-rate of 1 L/min. The sample flow rates were precisely controlled using variable area flow meters that were calibrated using a primary airflow calibrator before use. The absolute volume of each aerosol concentration sample was measured using a wet type gas meter.
The distribution of particle size in the generated aerosols for Groups 2 to 4 was measured weekly during the treatment period by collecting samples into a 7-Stage Mercer Cascade Impactor and the sample substrates obtained were transferred to the analytical chemistry laboratory of ITR Laboratories Canada Inc. for the chemical determination of the particle size of the aerosolized Riboflavin 5′-phosphate using a validated analytical method (ITR Study No. 40241). The distribution of particle size in the generated aerosols for Group 1 was estimated once weekly by gravimetric determination. The mass median aerodynamic diameter (MMAD) and the Geometric Standard Deviation (GSD) were calculated based on the results obtained from the impactor using a log-probit transformation.

Sprague-Dawley rats = assay: 28-day aerosolized liquid inhalation (nose-only) toxicity study in Sprague-Dawley rats; format: in vivo
Text: as §1
Test Article: riboflavin 5′-phosphate sodium salt hydrate; alternate identity: vitamin B2 phosphate; description: yellow crystals; potency: 74%. Vehicle article: saline (0.9% (w/v) NaCl for injection); description: clear colorless solution. Test system: rat (rattus norvegicus); strain: Sprague-Dawley Crl:CD (SD).
The test (0.5 mg/mL, 2.0 mg/mL, 5.0 mg/mL) and/or vehicle control formulations (0 mg/mL) for each group were prepared fresh daily on each day by dissolving the test article in saline. All prepared test article formulations were protected from light and kept at room temperature (RT).
as §2, §4, §3

[3] = female, Sprague-Dawley, rat, in vivo, 0.96 mg/kg/day
[4] = female, Sprague-Dawley, rat, in vivo, 2.4 mg/kg/day
[5] = male, Sprague-Dawley, rat, in vivo, 2.4 mg/kg/day
[6] = male, Sprague-Dawley, rat, in vivo, inhaled or intranasal, 0.96 mg/kg/day
[7] = Group 2 Low Dose, 0.5 mg/mL formulation
[8] = Group 3 Mid Dose, 2.0 mg/mL formulation
[9] = Group 4 High Dose, 5.0 mg/mL formulation

Cc1cc2nc3c(=O)[nH]c(=O)nc-3n(C[C@H](O)[C@H](O)[C@H](O)COP(=O)(O)O)c2cc1C [riboflavin 5′-phosphate]
Cmax ratio (M/F) ([1]; both, Sprague-Dawley, rat, in vivo, 0.96 mg/kg/day): 1.59 | AUC ratio (M/F) ([1]; both, Sprague-Dawley, rat, in vivo, 2.4 mg/kg/day): 1.24 | AUC ratio (M/F) [1, 3]: 1.25 | Cmax ratio (M/F) [1, 3]: 1.50 | AUC ratio (M/F) [1, 4]: 0.672 | Cmax ratio (M/F) [1, 4]: 1.17 | riboflavin concentration in plasma ([1]; female, Sprague-Dawley, rat, in vivo, 24 h): 0.829 µg/mL | Tmax of riboflavin ([1]; female, Sprague-Dawley, rat, in vivo, inhaled or intranasal, 0.96 mg/kg/day): 0.00 h | Tmax of riboflavin ([1]; female, Sprague-Dawley, rat, in vivo, inhaled or intranasal, 2.4 mg/kg/day): 0.00 h | AUC ratio (M/F) [1, 5]: 0.433 | Cmax ratio (M/F) [1, 5]: 0.801 | AUC(0-T) of riboflavin [1, 6]: 15.9 ng·h/mL | Tmax of riboflavin [1, 6]: 0.00 h | Tmax of riboflavin ([1]; male, Sprague-Dawley, rat, in vivo, inhaled or intranasal, 2.4 mg/kg/day): 0.00 h | gender difference in riboflavin exposure ([1]; rat, in vivo): no gender difference in riboflavin exposure | riboflavin 5′-phosphate concentrations in plasma of treated animals ([1]; rat, in vivo): detected in only very few treated animals | riboflavin concentration values, males versus females ([1]; rats, Day 1): slightly higher in males than in females | % of particles <3.1 μm [2, 7]: 91.8% | MMAD [2, 7]: 1.2 μm | % of particles <3.1 μm [2, 8]: 91.9% | MMAD [2, 8]: 1.2 μm | % of particles <3.1 μm [2, 9]: 87.8% | MMAD [2, 9]: 1.2 μm | No Observed Effect Level (NOEL) (Sprague-Dawley rats; Sprague-Dawley rats, once daily inhaled, 28 consecutive days, high dose group): 2.479 mg/kg/day | clinical chemistry (Sprague-Dawley rats; rat, in vivo): no changes noted in any clinical chemistry parameters that were considered to be treatment-related | coagulation times (Sprague-Dawley rats; rat, in vivo): unaffected by treatment | functional observation battery (Sprague-Dawley rats; rat, in vivo): no changes noted in any functional observation battery parameters that were considered to be treatment-related | hematology (Sprague-Dawley rats; rat, in vivo): no changes noted in any haematology parameters that were considered to be treatment-related | macroscopic findings at necropsy (Sprague-Dawley rats; rat, in vivo): no findings attributed to the test article administration | microscopic findings (Sprague-Dawley rats; rat, in vivo): no microscopic findings that were considered to be test article related | urinalysis (Sprague-Dawley rats; rat, in vivo): no changes in any of the urinalysis parameters evaluated that were considered affected by treatment | adverse effects (Sprague-Dawley rats; rat, in vivo, 2.4 mg/kg/day): no adverse effects were observed | mortality (Sprague-Dawley rats; rats, 0.244 mg/kg/day, considered accidental (restraint), not test article related): One male rat dosed at 0.244 mg/kg/day was found dead on Day 12 | local or systemic toxicity (histology of lymphoid and respiratory tract tissues) (Sprague-Dawley rats; rats, 28 days inhalation): no indications of local or systemic toxicity | tolerability (Sprague-Dawley rats; rats, nose-only inhalation, 28 consecutive days): well tolerated
